Experiments:
[1] = biological target: T1, Nav1.5 (Homo sapiens, UniProt Q14524); assay: Automated patch clamp (Qube-384) of INa in HEK cells transfected with SCN5A+SCN1B; type: cell-based
T1 construct: expressed in transfected cells; host or cells: HEK cells, transfected with Lipofectamine 2000
Experimental: (§1) HEK cells transiently transfected with wild-type SCN5A (α subunit—Nav1.5) together with SCN1B (β1 subunit) using Lipofectamine 2000 were used to assess the effect of AR-787 on the cardiac sodium channel current (INa). All cells were incubated at 37° C./5% CO2. All cell culture reagents were purchased from Thermo Fisher Scientific (Waltham, MA).
(§2) The effect of AR-787 on cardiac sodium channel current was evaluated in HEK cells co-transfected with SCN5A and SCN1B. INa was measured in the whole-cell configuration using a Qube-384 (Sophion A/S, Copenhagen, Denmark) automated voltage clamp system. A flipped Na^+ gradient was used where the extracellular solution contained (in mM): 125 choline chloride, 1 NaCl, 5 KCl, 2 CaCl2, 1 MgCl2, 10 HEPES/NaOH, pH 7.4 (adjusted with NaOH), and the intracellular solution contained (in mM): 115 NaF, 15 CsCl2, 5 CsF, 3 Na2ATP, 0.3 Na2GTP, 2 MgCl2, 0.1 CaCl2, 10 EGTA, and 10 HEPES/CsOH, pH 7.2 (adjusted with NaOH). The currents were low-pass-filtered at 5 kHz and recorded at 25 kHz sampling frequency. Series resistance compensation was applied at 100%, and leak subtraction was enabled. Experiments were performed at room temperature (27° C.). Appropriate filters for cell membrane resistance (typically >500 MΩ), series resistance (<10 MΩ), and Nav current magnitude (>500 pA at a test pulse from a resting holding potential of −120 mV) were routinely applied to exclude poor quality cells. Vehicle (0.5% DMSO) controls were run on each plate to enable correction for any compound independent decrease of currents over time.
(§3) We used a double voltage-pulse protocol designed specifically to assess whether the compound is a potentiator, inhibitor, or both. The protocol assesses these parameters at both rest and partially inactivated holding potentials. Currents were assessed by a test pulse of 0 mV from a holding potential at rest (−120 mV) before preconditioning channels to their appropriate mid-potential (V1/2) values (NaV1.5 V1/2=−90 mV) for 10 s. Peak current, time constant of inactivation (τ inactivation) and persistent current were measured.
(§4) Time constants (τ) for fast inactivation onset were derived by fitting a single exponential function to the decay of current obtained from the depolarizing test pulse following a holding potential of −120 mV.
(§5) where I is current amplitude, Iss is the plateau amplitude, α is the amplitude at time 0 for time constant τ, and t is time. Persistent sodium current was measured during a 10 ms test pulse from −120 mV to 0 mV. It was calculated as a percentage of peak sodium current at 5 ms.

[2] = biological target: T2, Nav1.5 (peak INa) (Homo sapiens, UniProt Q14524); assay: as above; type: cell-based; conditions: human, pH 7.4; 50 μM; holding potential −90 mV
T2 construct: expressed in transfected cells; host or cells: HEK cells, transfected with Lipofectamine 2000
T2 sequence (Q14524 whole entry): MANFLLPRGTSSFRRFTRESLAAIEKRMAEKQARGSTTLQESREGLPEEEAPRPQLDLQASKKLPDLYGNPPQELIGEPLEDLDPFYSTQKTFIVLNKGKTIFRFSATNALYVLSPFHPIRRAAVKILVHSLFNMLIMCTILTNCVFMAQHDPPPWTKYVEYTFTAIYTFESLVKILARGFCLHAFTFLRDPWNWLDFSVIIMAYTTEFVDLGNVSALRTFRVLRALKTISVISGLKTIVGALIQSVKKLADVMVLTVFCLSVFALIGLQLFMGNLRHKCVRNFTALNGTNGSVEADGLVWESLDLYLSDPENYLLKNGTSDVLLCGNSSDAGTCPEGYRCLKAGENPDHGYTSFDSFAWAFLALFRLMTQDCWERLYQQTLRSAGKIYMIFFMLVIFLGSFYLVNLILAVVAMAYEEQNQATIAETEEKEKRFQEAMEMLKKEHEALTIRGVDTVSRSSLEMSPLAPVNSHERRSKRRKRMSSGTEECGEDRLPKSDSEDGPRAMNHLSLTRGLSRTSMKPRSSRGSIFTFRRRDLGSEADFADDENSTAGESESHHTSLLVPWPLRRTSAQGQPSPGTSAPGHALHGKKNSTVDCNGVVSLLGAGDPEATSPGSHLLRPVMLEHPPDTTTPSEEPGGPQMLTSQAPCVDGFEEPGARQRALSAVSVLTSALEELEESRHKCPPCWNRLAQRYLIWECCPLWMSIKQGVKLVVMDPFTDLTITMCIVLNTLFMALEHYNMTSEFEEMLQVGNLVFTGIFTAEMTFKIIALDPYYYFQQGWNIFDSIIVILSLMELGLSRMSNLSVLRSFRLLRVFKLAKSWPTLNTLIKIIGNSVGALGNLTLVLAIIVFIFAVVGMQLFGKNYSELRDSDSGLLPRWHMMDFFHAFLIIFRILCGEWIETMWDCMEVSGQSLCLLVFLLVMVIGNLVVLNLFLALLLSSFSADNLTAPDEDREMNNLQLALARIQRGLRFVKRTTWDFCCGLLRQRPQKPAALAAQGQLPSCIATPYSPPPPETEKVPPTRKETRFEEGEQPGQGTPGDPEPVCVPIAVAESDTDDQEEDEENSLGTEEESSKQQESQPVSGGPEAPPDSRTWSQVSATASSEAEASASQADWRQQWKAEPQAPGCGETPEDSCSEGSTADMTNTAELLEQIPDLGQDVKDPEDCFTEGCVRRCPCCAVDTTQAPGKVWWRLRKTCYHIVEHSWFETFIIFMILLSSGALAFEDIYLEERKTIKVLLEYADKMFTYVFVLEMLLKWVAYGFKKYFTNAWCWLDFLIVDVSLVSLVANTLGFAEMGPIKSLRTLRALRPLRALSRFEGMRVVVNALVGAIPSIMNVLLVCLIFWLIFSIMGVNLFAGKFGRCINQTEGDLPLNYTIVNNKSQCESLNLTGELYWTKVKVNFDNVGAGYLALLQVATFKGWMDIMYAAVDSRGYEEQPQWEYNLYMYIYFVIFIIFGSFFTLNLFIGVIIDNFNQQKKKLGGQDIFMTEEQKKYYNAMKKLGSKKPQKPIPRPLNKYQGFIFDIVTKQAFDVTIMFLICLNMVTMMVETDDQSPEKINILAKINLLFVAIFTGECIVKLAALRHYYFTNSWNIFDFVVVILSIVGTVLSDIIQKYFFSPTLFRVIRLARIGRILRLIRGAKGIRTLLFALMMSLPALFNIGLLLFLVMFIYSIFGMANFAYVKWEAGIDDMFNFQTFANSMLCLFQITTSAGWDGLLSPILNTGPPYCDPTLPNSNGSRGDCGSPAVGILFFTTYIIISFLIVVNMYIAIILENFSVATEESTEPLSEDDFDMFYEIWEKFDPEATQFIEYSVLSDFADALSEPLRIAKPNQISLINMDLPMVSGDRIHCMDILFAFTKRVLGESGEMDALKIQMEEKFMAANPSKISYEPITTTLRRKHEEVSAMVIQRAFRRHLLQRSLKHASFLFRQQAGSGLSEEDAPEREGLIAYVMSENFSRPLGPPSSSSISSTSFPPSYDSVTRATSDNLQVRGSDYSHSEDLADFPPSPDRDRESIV
T2 sequence (Q07699 19-218 partner): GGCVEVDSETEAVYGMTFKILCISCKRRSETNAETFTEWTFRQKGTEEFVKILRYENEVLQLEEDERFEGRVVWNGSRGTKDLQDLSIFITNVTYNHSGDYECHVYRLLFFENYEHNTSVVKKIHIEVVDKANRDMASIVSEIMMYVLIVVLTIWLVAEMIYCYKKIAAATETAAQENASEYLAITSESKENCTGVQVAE
Experimental: as §1, §2, §3, §4, §5

[3] = system: coronary-perfused canine right ventricular (RV) wedge models of JWS, hypothermia; assay: Coronary-perfused RV wedge model of hypothermia (NS5806 plus decreasing temperature); conditions: NS5806 2 μM, 32.7±0.5° C., AR-787 10 μM, 20 min
Experimental: Transmural wedges were dissected from the base of the RV and LV. During the cannulation procedure, preparations were initially arterially perfused with cardioplegic solution. Next, the wedge preparations were placed in a tissue bath and perfused with a modified Krebs-Henseleit solution (K—H) bubbled with 95% O2/5% CO2 warmed to 37° C. The composition of K—H was (in mM): 118 NaCl, 4 KCl, 2 CaCl2, 1.2 MgSO4, 24 NaHCO3, 1.2 NaH2PO4, 2 Na Pyruvate and 10 D-Glucose. The perfusate was delivered at a constant pressure (45-50 mmHg). A transmural pseudo-ECG (ECG) was recorded using two Ag/AgCl half cells placed at ˜1 cm from the Epi (+) and Endo (−) surfaces along the same axis as the transmembrane action potential (AP) recordings. APs were simultaneously recorded from the immediate sub-Epi and M cell region (˜2-3 mm from the Endo surface) using floating glass microelectrodes. […] A detailed description of the arterially-perfused ventricular wedge preparation has been previously published.^5 ECG and AP signals were digitized and analyzed using Spike 2 for Windows (Cambridge Electronic Design, Cambridge, UK). […]
FIG. 9A-9C show the ability of AR-787 to suppress the ECG and arrhythmic manifestations in a model of hypothermia. […] The third grouping was recorded 10 minutes after lowering the temperature of the perfusate to 32.7±0.5° C. […] The fourth column was recorded 20 min after addition of AR-787 (10 μM).

[4] = 50 μM, holding potential −120 mV
[5] = 50 μM, mid-voltage holding potential (NaV1.5 V1/2 = −90 mV)

T1 sequence (Q14524 whole entry): as the sequence (Q14524 whole entry) above
T1 sequence (Q07699 19-218 partner): as the sequence (Q07699 19-218 partner) above

**Q.** For `Cc1nc(-n2cccc2)sc1C(=O)N=c1[nH]c2ccccc2[nH]1` [AR-787, N-(1H-benzimidazol-2-yl)-4-methyl-2-pyrrol-1-yl-thiazole-5-carboxamide], which “Normalized AUC” value ([1]; 50 μM) is on record?
**A.** Its value is 1.03 ± 0.06.

**Q.** And the “reduction of INa” value ([1]; 50 μM, 0 mV test pulse from holding potential −120 mV)?
**A.** The value was about 32%.

**Q.** What about the “deceleration of fast inactivation kinetics” value ([1]; 50 μM, holding potential −90 mV) of the same molecule?
**A.** The value was “this effect was abolished”.

**Q.** And the “Normalized Inhibition (−120 mV)” value [1, 4]?
**A.** Its value is 0.32 ± 0.03.

**Q.** And the “Normalized τinactivation (−120 mV)” value [1, 4]?
**A.** Its value is 1.45 ± 0.07.

**Q.** What about the “deceleration of fast inactivation kinetics” value [1, 4] of the same molecule?
**A.** Its value is about 1.5 fold.

**Q.** And the “Normalized Inhibition (−65 mV and −90 mV)” value [1, 5]?
**A.** Its value is 0.78 ± 0.02.

**Q.** And the “Normalized τinactivation (−65 mV and −90 mV)” value [1, 5]?
**A.** The value was 1.11 ± 0.10.

**Q.** And the “Normalized Persistent Current (5 ms)” value ([1]; 50 μM, percentage of peak sodium current at 5 ms, from −120 mV to 0 mV)?
**A.** The value was 10.44 ± 3.30.

**Q.** What about the “increase of late INa (persistent sodium current, percent of peak current)” value ([1]; at 5 ms of a 10 ms depolarization to 0 mV from −120 mV) of the same molecule?
**A.** The value was about 10%.

**Q.** What about the inhibition at 50 µM [2] of the same molecule?
**A.** Its inhibition at 50 µM is 80%.

**Q.** What about the “hypothermia-induced AP notch, J wave, phase 2 reentry and pVT” value [3] of the same molecule?
**A.** Its value is “diminished the action potential (AP) notch and J wave”.

— patent US20250228824A1, “COMPOSITIONS AND METHODS FOR INHIBITION OF ITO AS TREATMENT FOR THE J WAVE SYNDROMES AND HYPOTHERMIA” (Lankenau Institute for Medical Research, priority 2021, published 2025)
